No end group written: not given here.
Test system: Anti-PACAP antibodies (capture Lu AG20136, detection Lu AG20141)
Experiment: Reactivity in PACAP MSD S-PLEX sandwich immunoassay
Assay type: binding
Conditions: sandwich ECL immunoassay

In the case of “vasoactive intestinal peptide (HSDAVFTDNYTRLRKQMAVKKYLNSILN; ends and bridges not checked; UniProt P01282 125-152, looked up) [VIP]”, the “Reactivity in PACAP MSD S-PLEX assay” value is reported as “No reactivity”.

B1: ceruloplasmin: protein tested for interaction in the PACAP assay (protein, UniProt P00450 20-1065, looked up)
Ceruloplasmin: KEKHYYIGIIETTWDYASDHGEKKLISVDTEHSNIYLQNGPDRIGRLYKKALYLQYTDETFRTTIEKPVWLGFLGPIIKAETGDKVYVHLKNLASRPYTFHSHGITYYKEHEGAIYPDNTTDFQRADDKVYPGEQYTYMLLATEEQSPGEGDGNCVTRIYHSHIDAPKDIASGLIGPLIICKKDSLDKEKEKHIDREFVVMFSVVDENFSWYLEDNIKTYCSEPEKVDKDNEDFQESNRMYSVNGYTFGSLPGLSMCAEDRVKWYLFGMGNEVDVHAAFFHGQALTNKNYRIDTINLFPATLFDAYMVAQNPGEWMLSCQNLNHLKAGLQAFFQVQECNKSSSKDNIRGKHVRHYYIAAEEIIWNYAPSGIDIFTKENLTAPGSDSAVFFEQGTTRIGGSYKKLVYREYTDASFTNRKERGPEEEHLGILGPVIWAEVGDTIRVTFHNKGAYPLSIEPIGVRFNKNNEGTYYSPNYNPQSRSVPPSASHVAPTETFTYEWTVPKEVGPTNADPVCLAKMYYSAVEPTKDIFTGLIGPMKICKKGSLHANGRQKDVDKEFYLFPTVFDENESLLLEDNIRMFTTAPDQVDKEDEDFQESNKMHSMNGFMYGNQPGLTMCKGDSVVWYLFSAGNEADVHGIYFSGNTYLWRGERRDTANLFPQTSLTLHMWPDTEGTFNVECLTTDHYTGGMKQKYTVNQCRRQSEDSTFYLGERTYYIAAVEVEWDYSPQREWEKELHHLQEQNVSNAFLDKGEFYIGSKYKKVVYRQYTDSTFRVPVERKAEEEHLGILGPQLHADVGDKVKIIFKNMATRPYSIHAHGVQTESSTVTPTLPGETLTYVWKIPERSGAGTEDSACIPWAYYSTVDQVKDLYSGLIGPLIVCRRPYLKVFNPRRKLEFALLFLVFDENESWYLDDNIKTYSDHPEKVNKDDEEFIESNKMHAINGRMFGNLQGLTMHVGDEVNWYLMGMGNEIDLHTVHFHGHSFQYKHRGVYSSDVFDIFPGTYQTLEMFPRTPGIWLLHCHVTDHIHAGMETTYTVLQNEDTKSG
For B1, the “Reactivity in PACAP MSD S-PLEX assay” value was “no interaction”.

Reference: article doi:10.1101/2025.03.04.25323177v1 (medRxiv, 2025)
